Measured values reported in ChEMBL document CHEMBL2074126, “A functional assay for quantitation of the apparent affinities of ligands of P-glycoprotein in Caco-2 cells” (Pharm Res, 2001).

Legend:
[1] = biological target: T1, ATP-dependent translocase ABCB1 (Homo sapiens, UniProt P08183); assay: TP_TRANSPORTER: inhibition of Taxol transepithelial transport (basal to apical) in Caco-2 cells; type: functional, cell-based
[2] = biological target: T1, ATP-dependent translocase ABCB1; assay: TP_TRANSPORTER: inhibition of Taxol transepithelial transport (basal to apical) (Taxol: 0.8 uM, Probenecid: 1000 u) in Caco-2 cells; type: functional, cell-based

T1 sequence (P08183 whole entry): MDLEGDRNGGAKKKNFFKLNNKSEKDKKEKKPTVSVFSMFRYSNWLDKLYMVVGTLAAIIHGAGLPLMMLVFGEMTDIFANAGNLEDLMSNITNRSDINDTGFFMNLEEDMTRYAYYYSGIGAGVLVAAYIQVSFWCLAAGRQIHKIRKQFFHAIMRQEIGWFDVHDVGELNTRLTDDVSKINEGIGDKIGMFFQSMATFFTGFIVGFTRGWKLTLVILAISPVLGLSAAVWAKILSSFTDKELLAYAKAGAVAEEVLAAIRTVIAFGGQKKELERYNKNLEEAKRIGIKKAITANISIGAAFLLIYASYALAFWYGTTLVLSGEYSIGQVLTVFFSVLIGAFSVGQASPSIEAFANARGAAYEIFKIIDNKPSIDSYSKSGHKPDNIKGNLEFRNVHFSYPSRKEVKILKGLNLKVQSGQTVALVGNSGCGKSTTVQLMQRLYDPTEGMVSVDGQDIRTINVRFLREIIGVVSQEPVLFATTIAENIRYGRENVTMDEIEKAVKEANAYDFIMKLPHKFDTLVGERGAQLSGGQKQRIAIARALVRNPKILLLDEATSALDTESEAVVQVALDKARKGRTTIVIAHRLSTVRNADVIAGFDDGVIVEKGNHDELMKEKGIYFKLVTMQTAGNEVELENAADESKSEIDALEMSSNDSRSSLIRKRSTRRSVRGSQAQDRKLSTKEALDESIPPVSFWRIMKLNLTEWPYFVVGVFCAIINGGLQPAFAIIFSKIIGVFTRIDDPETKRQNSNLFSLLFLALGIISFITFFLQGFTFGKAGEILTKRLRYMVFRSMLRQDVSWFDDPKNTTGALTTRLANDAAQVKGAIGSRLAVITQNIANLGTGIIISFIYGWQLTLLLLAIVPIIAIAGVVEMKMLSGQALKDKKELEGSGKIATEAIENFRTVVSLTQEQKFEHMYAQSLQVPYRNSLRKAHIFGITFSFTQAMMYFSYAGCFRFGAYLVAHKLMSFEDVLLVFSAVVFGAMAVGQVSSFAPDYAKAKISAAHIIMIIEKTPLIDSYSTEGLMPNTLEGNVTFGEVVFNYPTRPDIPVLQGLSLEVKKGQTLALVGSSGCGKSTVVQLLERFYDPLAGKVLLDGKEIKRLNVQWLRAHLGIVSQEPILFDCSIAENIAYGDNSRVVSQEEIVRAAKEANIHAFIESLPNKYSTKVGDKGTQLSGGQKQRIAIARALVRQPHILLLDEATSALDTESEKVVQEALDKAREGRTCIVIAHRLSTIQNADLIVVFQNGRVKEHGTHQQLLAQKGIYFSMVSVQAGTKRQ

CCN(CC)C(=O)Nc1ccc(OCC(O)CNC(C)(C)C)c(C(C)=O)c1 (centres undefined) [CELIPROLOL]
Ki [1]: 313 µM

COc1cccc2c1C(=O)c1c(O)c3c(c(O)c1C2=O)C[C@@](O)(C(C)=O)C[C@@H]3O[C@H]1C[C@H](N)[C@H](O)[C@H](C)O1 [DAUNORUBICIN]
Ki [1]: 2.5 µM

COc1cccc2c1C(=O)c1c(O)c3c(c(O)c1C2=O)C[C@@](O)(C(=O)CO)C[C@@H]3O[C@H]1C[C@H](N)[C@H](O)[C@H](C)O1 [DOXORUBICIN]
Ki [1]: 8.5 µM

CCCN(CCC)S(=O)(=O)c1ccc(C(=O)O)cc1 [PROBENECID]
Activity [2]: is not an inhibitor [-]
